The values below come from ChEMBL document CHEMBL1250437, “Callyaerins A-F and H, new cytotoxic cyclic peptides from the Indonesian marine sponge Callyspongia aerizusa” (Bioorg Med Chem, 2010).

Where only a bound is given, the exact number is not on record here.

One data set deals with Candida albicans. The data set is described as follows: Antimicrobial activity against Candida albicans at 5 to 10 uL. The format is functional.
The next data set concerns Staphylococcus aureus. The data set is described as follows: Antimicrobial activity against Staphylococcus aureus at 5 to 10 uL. The format is functional.
For the next data set, the system named is Escherichia coli. The data set is described as follows: Antimicrobial activity against Escherichia coli at 5 to 10 uL. The format is functional.
In another data set the test system is L5178Y. The data set is described as follows: Cytotoxicity against mouse L5178Y cells. The class given is functional. The conditions noted are these: read-out: ED50 (the source's name).
The next data set relates to Bacillus subtilis. The experiment in a line: Antimicrobial activity against Bacillus subtilis at 5 to 10 uL. The format is functional.
In a further data set the test system is HeLa. The experiment in a line: Cytotoxicity against human HeLa cells. The class given is functional. The conditions noted are these: read-out: ED50 (the source's name).
A short description of data set [1]: Toxicity in brine shrimp assessed as mortality at 20 ug/ml. The class given is organism-based. Conditions: artemia, in vivo; read-out: Activity.
A short description of data set [2]: Toxicity in brine shrimp assessed as mortality at 50 ug/ml. The format is organism-based. The conditions noted are these: artemia, in vivo; read-out: Activity.
The subject of the next data set is PC-12. The data set is described as follows: Cytotoxicity against rat PC12 cells. The class given is functional. The conditions noted are these: read-out: ED50 (the source's name).

For the compound `CC[C@@H](C)[C@@H]1NC(=O)[C@H](C(C)C)NC(=O)[C@@H]2C[C@@H](O)CN2C(=O)[C@H]([C@@H](C)CC)N/C=C(\C(=O)N2CCC[C@H]2C(=O)N[C@H](C(=O)N[C@@H](Cc2ccccc2)C(=O)NCC(N)=O)[C@@H](C)CC)NC(=O)[C@H](CC(C)C)NC(=O)[C@@H]2CCCN2C(=O)[C@@H]2CCCN2C(=O)[C@H](CC(C)C)NC1=O` [CALLYAERIN A], the “inhibition zone (IZ)” value with Candida albicans stood at 25 mm; in the data set with Staphylococcus aureus, 9 mm; in the data set on Escherichia coli it was 10 mm; in the data set on Bacillus subtilis, 0 mm. For the same compound, the EC50 with L5178Y was 3.61 µM.

Consider `CC[C@@H](C)[C@@H]1NC(=O)[C@H]([C@@H](C)CC)NC(=O)[C@@H]2C[C@@H](O)CN2C(=O)[C@H]([C@H](C)CC)N/C=C(\C(=O)N2CCC[C@H]2C(=O)N[C@H](C(=O)N[C@H](C(=O)O)[C@@H](C)CC)[C@@H](C)CC)NC(=O)[C@H](CC(C)C)NC(=O)[C@@H]2CCCN2C(=O)[C@@H]2CCCN2C(=O)[C@H](CC(C)C)NC1=O` [CALLYAERIN B], for which the EC50 was greater than 8 µM with HeLa, 4.14 µM in the data set with L5178Y and greater than 8 µM with PC-12. Further, the “inhibition zone (IZ)” value in the data set with Candida albicans came out at 15 mm; in the data set with Staphylococcus aureus it was 11 mm; with Escherichia coli it was 7 mm; in the data set with Bacillus subtilis, 0 mm. In addition, the mortality at 20 ug/ml in [1] stood at 15%. Also, the mortality at 50 ug/ml in [2] is 35%.

On to `CC[C@@H]1NC(=O)[C@@H]2C[C@@H](O)CN2C(=O)[C@@H]2CCCN2C(=O)[C@H](Cc2ccccc2)NC(=O)[C@H]([C@H](C)CC)NC(=O)[C@H]([C@H](C)CC)N/C=C(\C(=O)N2CCC[C@H]2C(=O)N[C@H](C(=O)N[C@@H](CC(N)=O)C(=O)N[C@@H](C)C(=O)N[C@H](C(=O)O)[C@@H](C)CC)[C@@H](C)CC)NC(=O)[C@H](CC(C)C)NC1=O` [CALLYAERIN D], for which the “inhibition zone (IZ)” value worked out at 0 mm in the data set on Candida albicans, 0 mm in the data set on Staphylococcus aureus, 0 mm in the data set on Escherichia coli and 12 mm with Bacillus subtilis. The EC50 in the data set on L5178Y worked out at 3.03 µM.

In the case of `CC[C@H](C)[C@H](NC(=O)[C@@H](NC(=O)[C@@H]1CCCN1C(=O)/C1=C/N[C@@H](CC(C)C)C(=O)N2CCC[C@H]2C(=O)N[C@@H](Cc2ccccc2)C(=O)N[C@@H](Cc2ccccc2)C(=O)N2CCC[C@H]2C(=O)N2CCC[C@H]2C(=O)N[C@@H](C(C)C)C(=O)N1)[C@@H](C)CC)C(=O)NCC(=O)O` [CALLYAERIN E], the EC50 is 3.4 µM in the data set on HeLa, 0.39 µM with L5178Y and 3.8 µM with PC-12. Also, the “inhibition zone (IZ)” value in the data set on Candida albicans is given as 20 mm; in the data set with Staphylococcus aureus, 9 mm; with Escherichia coli it was 9 mm; in the data set with Bacillus subtilis it was 15 mm. The mortality at 20 ug/ml in data set [1] was determined as 45%. Further, the mortality at 50 ug/ml in data set [2] was found to be 70%.

Turning to `CC[C@H](C)[C@H](NC(=O)[C@H](Cc1ccccc1)NC(=O)[C@H](CC(C)C)NC(=O)[C@@H]1CCCN1C(=O)/C1=C\N[C@@H](C(C)C)C(=O)N2CCC[C@H]2C(=O)N[C@@H](C(C)C)C(=O)N[C@@H](Cc2ccccc2)C(=O)N2CCC[C@H]2C(=O)N1)C(=O)O` [CALLYAERIN F], the EC50 in the data set with HeLa, in the data set with L5178Y and with PC-12 was greater than 9 µM throughout. Besides, the “inhibition zone (IZ)” value with Candida albicans, in the data set with Staphylococcus aureus, in the data set with Escherichia coli and with Bacillus subtilis was 0 mm in each case.

Consider `CC(C)C[C@@H]1NC(=O)[C@@H]2CCCN2C(=O)[C@H]2CCCN2C(=O)[C@@H]2CCCN2C(=O)[C@@H]2CCCN2C(=O)[C@H](CC(C)C)N/C=C(\C(=O)N2CCC[C@H]2C(=O)N[C@@H](Cc2ccccc2)C(=O)N[C@@H](Cc2ccccc2)C(=O)N[C@@H](Cc2ccccc2)C(=O)O)NC1=O` [CALLYAERIN G], for which the EC50 is 4.43 µM with HeLa, 0.41 µM with L5178Y and greater than 8 µM with PC-12.

Consider `CC[C@H](C)[C@H](NC(=O)[C@@H]1CCCN1C(=O)/C1=C\N[C@@H](C(C)C)C(=O)N2CCC[C@H]2C(=O)N[C@@H](C(C)C)C(=O)N[C@@H](Cc2ccccc2)C(=O)N2CCC[C@H]2C(=O)N2CCC[C@H]2C(=O)N[C@@H](CC(C)C)C(=O)N1)C(=O)O` [CALLYEARIN H], for which the mortality at 20 ug/ml in data set [1] was determined as 30%. In data set [2], the mortality at 50 ug/ml came to 55%. The EC50 in the data set on L5178Y was found to be 0.48 µM.
